According to paper PMC5760734, “Development of an oral once-weekly drug delivery system for HIV antiretroviral therapy” (Nature Communications, 2018):
Read-outs that look alike come from different tables or passages of the source.

Experiments:
[1] = Drug stability in simulated gastric fluid (SGF), HPLC; details: for stability in SGF: SGF pH ~1.2, 37 °C, 24 h, salt forms
Procedure: To determine drug stability at low pH, the drugs were dissolved in methanol to form a concentrated stock solution. Methanol solutions were then diluted 20-fold in simulated gastric fluid, USP without pepsin (pH ~1.2; henceforth referred to as SGF). Drug solutions were then placed in a shaker incubator (New Brunswick™ Innova® 44, Eppendorf, USA) at 37 °C and 150 r.p.m. At various times, aliquots were withdrawn and stored at −20 °C until analysis. Drug concentrations in the solution were analysed using HPLC and reported as percent of the initial concentrations.
The output signal was monitored and processed using ChemStation® software (Agilent Technologies Inc., USA). Chromatographic separation was carried out on a 50 mm × 4.6 mm EC-C18 Agilent Poroshell 120 analytical column with 2.7 µm spherical particles.
The injection volume was 5 µL, and the UV detection wavelength of 260 nm was selected.
For RPV, the stationary phase was maintained at 40 °C. The mobile phase consisted of methanol: water (pH 3.5 adjusted with 0.1% formic acid) (43:57 v/v) at a flow rate of 0.9 mL/min over a 10 min run time. The injection volume was 20 µL, and the UV detector was set at 290 nm.
For CAB, the column was maintained at 45 °C and the optimized mobile phase consisted of acetonitrile: water (pH 3.5 adjusted with 0.1% formic acid) (30:70 v/v) at flow rate of 0.8 mL/min over an 8 min run time. For analysis, 5 µL of the sample was injected on to the column, and the samples were analysed at a wavelength of 260 nm.
For tenofovir alafenamide, the column was maintained at 22 °C. The mobile phase consisted initially of acetonitrile: water (pH 3.5 adjusted with 0.1% formic acid) (100:0 v/v). […] The flow rate was 0.6 mL/min and the run time was 8 min. The injection volume was 10 µL, and the UV detection wavelength of 260 nm was selected.

[2] = Drug stability at high temperature (150 °C, 2 h), HPLC; type: physicochemical; details: 150 °C for 2 h
Procedure: To determine the drug stability at high temperatures, the drug was weighed in a 20 mL glass vial, and placed in a convection oven at 150 °C for 2 h. Drug was dissolved in methanol, and the concentration was compared to that of an unheated standard of the same initial concentration via HPLC.

[3] = humans receiving the usual oral dose; stated by Reviewer 1, no reference; cited from earlier work
[4] = Plasma pharmacokinetics of immediate release and gastric resident dosage forms in pigs; type: in vivo, Yorkshire pigs; details: for Tmax: female, Yorkshire, pig, plasma, oral, post-dose, read-out: time of maximum plasma concentration (converted); for duration of sustained drug concentrations: single dose
Procedure: All animal experiments were approved by the Committee on Animal Care at the Massachusetts Institute of Technology. In vivo pharmacokinetics were evaluated in an unblinded fashion in female Yorkshire pigs (50–95 kg) that were randomly assigned to the immediate release or sustained release groups. Animals were fed daily in the morning and in the evening with a diet consisting of pellets (Laboratory mini-pig growler diet, 5081), with a midday snack consisting of various fruits and vegetables. Specifically, the pellets were 5/32” x ¼” length, and consisted of ground oats, alfalfa meal, wheat middlings, soybean meal, dried beet pulp, salts and other micronutrients.
To determine the oral pharmacokinetics of immediate release dosage forms of DTG and CAB, 50 mg of DTG and 30 mg of CAB were weighed and filled into gelatine capsules. For RPV pharmacokinetics, RPV base was dissolved in poly(ethylene glycol) (molecular weight—400 Da) containing 10-fold molar excess of citric acid. The concentration of RPV base in this solution was 5 mg/mL and 5 mL of the solution was dosed in a gelatine capsule. […] To determine oral pharmacokinetics from gastric retentive dosage forms, the arms of dosage forms (2–3/pig containing 350 mg DTG, 175 mg RPV or 210 mg CAB) were folded into capsule shells immediately prior to dosing. […]. The capsules containing drug or dosage form were delivered into the intestine or stomach respectively. At various time points, blood samples (0.5 mL) were collected from a central line connected to the external jugular vein or from a mammary vein into […] Vacutainer gold top tubes (Becton, Dickinson and Co. USA). Plasma samples were separated from blood by centrifugation (1800g, 10 min at 4 °C) and were stored at −80 °C. Atropine can reduce gastric acid production and gastric motility which may affect the overall drug pharmacokinetics and the gastric retention of the dosage form. […]. Drug concentrations in the plasma were analysed using UPLC-MS/MS. Plasma samples (100 µL) were spiked with 200 µL acetonitrile solution of 250 µg/mL maraviroc (internal standard) to cause precipitation. Samples were vortexed and sonicated for 10–20 min and then centrifuged (21130g, 10 min). Two hundred microliters of solution were pipetted into a 96-well plate containing 200 µL of nanopure water. Finally, 2.5 μL was injected onto the UPLC–ESI–MS system for analysis.
UPLC separation was carried out on a Waters® UPLC aligned with a Waters® Xevo–TQ-SMS mass spectrometer (Waters Ltd., UK). MassLynx® 4.1 software was used for data acquisition and analysis. Liquid chromatography separation was performed on an Acquity® UPLC CSH C18 (50 × 2.1 mm, 1.7 μm particle size) column at 50 °C. The mobile phase consisted of acetonitrile spiked with 0.1% formic acid and 10 mM ammonium formate solution. The mobile phase was flowed at a rate of 0.6 mL/min using a time and solvent gradient composition. The initial composition (100% aqueous) was held for 1 min, following which the composition was changed linearly to 20% organic phase over the next 0.25 min. The composition was then brought to 100% organic over 1.25 min, held for 0.5 min and finally shifted to the initial composition and held constant until the end of the run for column equilibration. The total run time was 4 min and sample injection volume was 2.5 μL. The mass spectrometer was operated in the multiple reaction monitoring (MRM) mode. Sample introduction and ionization was by electrospray ionization (ESI) in the positive ion mode. DTG, RPV and CAB were analysed at mass-to-charge ratios of […] respectively. Stock solutions of DTG, RPV, CAB, and an internal standard maraviroc were prepared in methanol at a concentration of 500 μg/mL. A ten-point calibration curve was prepared ranging from 2.5–5000 ng/mL. Quality control samples were prepared in a similar procedure using an independent stock solution at three concentrations (5, 50 and 500 ng/mL). […]

[5] = pig, in vivo, po; cited from earlier work
[6] = tested on: HIV reference strain NL4-3; parameters: method as in ref 46,55–57 (a number printed in a supplementary file, which may have a reference list of its own: not looked up in the article's list); details: wild-type virus; cited from earlier work
[7] = parameters: method as in ref 58 (a number printed in a supplementary file, which may have a reference list of its own: not looked up in the article's list); details: cited from earlier work
[8] = tested on: drug-resistant HIV strains; details: cited from earlier work
[9] = immediate release formulation, pigs
[10] = immediate release formulation, pigs, n = 3

For `C[C@H]1CO[C@@H]2Cn3cc(C(=O)NCc4ccc(F)cc4F)c(=O)c(O)c3C(=O)N12` [CAB, cabotegravir], the “stability in SGF” value [1] is given as “stable”, the “stability at elevated temperature” value [2] is given as “stable” and the “usual Cmax in humans” value [3] is given as 2800 ng/mL. The Tmax [4, 9] was 6 h, the “average peak plasma concentration, fold lower than immediate release” value ([4]; gastric resident system vs immediate release, pigs) was ~ 2.5 fold and the “average (sustained) plasma drug concentrations throughout the week following dosing” value ([4]; gastric resident system, pigs, n = 3) was 200 to 500 ng/mL. For the same compound, the “duration of sustained drug concentrations” value ([4]; gastric resident system) was “up to 1 week”, the “day at or after which no drug was detected in plasma” value [4, 9] was 3 days and the “time for which drug was detectable in plasma” value [4, 9] was “up to 2 days”. For the same compound, the “average maximum plasma concentration” value [4, 10] was roughly 1400 ng/mL.
In the case of `C[C@]12C=CC(=O)C=C1CC[C@@H]1[C@@H]2[C@@H](O)C[C@@]2(C)[C@H]1CC[C@]2(O)C(=O)CO` [prednisolone], the “concentrations achieved in pigs relative to those observed in humans” value [5] is given as “about one tenth”.
In the case of `Cc1cc(/C=C/C#N)cc(C)c1Nc1ccnc(Nc2ccc(C#N)cc2)n1` [RPV, rilpivirine], the “stability in SGF” value [1] is listed as “stable”, the “stability at elevated temperature” value [2] is listed as “stable” and the “usual Cmax in humans” value [3] is listed as 200 ng/mL. For the same compound, the Tmax ([4]; 175 mg, gastric resident dosage form, pigs) was 24 h, the “maintenance of plasma concentrations” value ([4]; gastric resident dosage form, pigs, entirety of the study) was “comparable to the Cmax were maintained for the entirety of the study” and the “duration of sustained drug concentrations” value ([4]; gastric resident system) was “up to 1 week”. The “time for plasma concentration to drop below the limit of detection” value [4, 9] was no more than 2 days, the “average maximum plasma concentration” value [4, 10] was roughly 25 ng/mL and the IC50 [6] was 105 nM. The “m (slope parameter of Hill curve)” value [6] was 1.83, the “Half-life, τ1/2” value [7] was 50 h and the Cmax ([7]; maximum plasma concentration at steady state, perfect adherence) was 510 nM. For the same compound, the “Fold change in IC50 (ρ)” value ([8]; mutation E138K/M184I) was 3.20, the “Fold change in IC50 (ρ)” value ([8]; mutation E138K/M230L) was 22.60 and the “Fold change in IC50 (ρ)” value ([8]; mutation E138K) was 2.30. The “Fold change in IC50 (ρ)” value ([8]; mutation K101E/E138K) was 3.20, the “Fold change in IC50 (ρ)” value ([8]; mutation K101E/M184I) was 5.80 and the “Fold change in IC50 (ρ)” value ([8]; mutation K101E) was 3.00. The “Fold change in IC50 (ρ)” value ([8]; mutation K101P) was 102.13, the “Fractional change in slope (σ)” value ([8]; mutation K101P) was -0.21 and the “Fold change in IC50 (ρ)” value ([8]; mutation K103N) was 1.23. The “Fractional change in slope (σ)” value ([8]; mutation K103N) was 0.12, the “Fold change in IC50 (ρ)” value ([8]; mutation M184I) was 1.50 and the “Fold change in IC50 (ρ)” value ([8]; mutation M230L) was 3.40. For the same compound, the “Fold change in IC50 (ρ)” value ([8]; mutation Y181C/Y188L) was 30.20, the “Fold change in IC50 (ρ)” value ([8]; mutation Y181C) was 1.72 and the “Fractional change in slope (σ)” value ([8]; mutation Y181C) was -0.48. For the same compound, the “Fold change in IC50 (ρ)” value ([8]; mutation Y181I) was 152.91, the “Fractional change in slope (σ)” value ([8]; mutation Y181I) was -0.10 and the “Fold change in IC50 (ρ)” value ([8]; mutation Y181V) was 31.00. For the same compound, the “Fold change in IC50 (ρ)” value ([8]; mutation Y188L) was 6.00.
`CC(C)OC(=O)[C@H](C)N[P@](=O)(CO[C@H](C)Cn1cnc2c(N)ncnc21)Oc1ccccc1` [TAF, tenofovir alafenamide] showed a drug remaining stable ([1]; after 10 h of incubation in SGF, 37 °C) of 10%.
